Test results reported in the NIST ThermoML archive (doi:10.1016/j.jct.2008.05.014).

Assay: xn = mol fraction of the nth substance listed
Details: Liquid; for speed of sound: Pulse-echo method

CCCCCCCCCCCC [dodecane] + CCCCCCC
Details	mass density [kg/m3]	speed of sound [m/s]
298.15 K, 91180 kPa, x2 = 0.5003	–	1642.1
298.15 K, 101320 kPa, x2 = 0.1014	–	1704.4
298.15 K, 101320 kPa, x2 = 0.4999	–	1676
298.15 K, 101320 kPa, x2 = 0.5003	–	1676.4
298.16 K, 101 kPa, x2 = 0	–	1278.9
298.16 K, 101 kPa, x2 = 0.3002	–	1246.5
298.16 K, 101 kPa, x2 = 0.3996	726.184	–
298.16 K, 101 kPa, x2 = 0.6	713.735	1205.1
298.16 K, 101 kPa, x2 = 0.8995	–	1151.9
298.16 K, 15200 kPa, x2 = 0	–	1365.9
298.16 K, 15200 kPa, x2 = 0.3007	–	1336
298.16 K, 15200 kPa, x2 = 0.4999	–	1314.6
298.16 K, 15200 kPa, x2 = 0.7007	–	1286.6
298.16 K, 30390 kPa, x2 = 0	–	1440
298.16 K, 30390 kPa, x2 = 0.3007	–	1413
298.16 K, 30390 kPa, x2 = 0.7007	–	1368.2
298.16 K, 45580 kPa, x2 = 0	–	1507
298.16 K, 45590 kPa, x2 = 0.3007	–	1481.9
298.16 K, 60790 kPa, x2 = 0	–	1568
298.16 K, 75990 kPa, x2 = 0	–	1625.2
298.16 K, 75990 kPa, x2 = 0.3007	–	1602.7
298.16 K, 91180 kPa, x2 = 0	–	1677.7
298.16 K, 91180 kPa, x2 = 0.3007	–	1656.7
298.16 K, 91180 kPa, x2 = 0.7007	–	1623.2
298.16 K, 101320 kPa, x2 = 0	–	1711.1
298.16 K, 101320 kPa, x2 = 0.3007	–	1690.7
298.16 K, 101320 kPa, x2 = 0.7007	–	1658.1
298.17 K, 101 kPa, x2 = 0.7002	–	1188.8
298.17 K, 101 kPa, x2 = 0.8	–	1171.2
298.17 K, 15200 kPa, x2 = 0.1014	–	1356.6
298.17 K, 15200 kPa, x2 = 0.8496	–	1264.5
298.17 K, 30390 kPa, x2 = 0.8496	–	1348.6
298.17 K, 45590 kPa, x2 = 0.8496	–	1422.9
298.17 K, 60790 kPa, x2 = 0.8496	–	1489.9
298.17 K, 75990 kPa, x2 = 0.8496	–	1551
298.17 K, 91180 kPa, x2 = 0.8496	–	1608.3
298.17 K, 101320 kPa, x2 = 0.8496	–	1644.1
298.18 K, 101 kPa, x2 = 0.1007	–	1268.9
298.18 K, 101 kPa, x2 = 0.3996	–	1233.8
298.18 K, 101 kPa, x2 = 0.5002	–	1219.9
298.18 K, 30390 kPa, x2 = 0.1014	–	1431.7
298.19 K, 101 kPa, x2 = 0.2001	–	1258.1
303.12 K, 15200 kPa, x2 = 0.9391	–	1228.3
303.12 K, 30390 kPa, x2 = 0.9391	–	1315.5
303.12 K, 30390 kPa, x2 = 0.97	–	1312
303.12 K, 45590 kPa, x2 = 0.9391	–	1392
303.12 K, 45590 kPa, x2 = 0.97	–	1388.9
303.12 K, 60790 kPa, x2 = 0.9391	–	1461.1
303.12 K, 60790 kPa, x2 = 0.97	–	1458.4
303.12 K, 75990 kPa, x2 = 0.9391	–	1523.8
303.12 K, 75990 kPa, x2 = 0.97	–	1521.5
303.12 K, 91180 kPa, x2 = 0.9391	–	1582
303.12 K, 91180 kPa, x2 = 0.97	–	1579.9
303.12 K, 101320 kPa, x2 = 0.9391	–	1618.9
303.12 K, 101320 kPa, x2 = 0.97	–	1616.9
303.13 K, 15200 kPa, x2 = 0.97	–	1224
303.13 K, 101320 kPa, x2 = 0.1014	–	1691.2
303.13 K, 101320 kPa, x2 = 0.5003	–	1663
303.14 K, 101 kPa, x2 = 0.6	–	1184.8
303.14 K, 101 kPa, x2 = 0.8995	–	1130.7
303.14 K, 15200 kPa, x2 = 0.1014	–	1339.1
303.14 K, 15200 kPa, x2 = 0.4999	–	1296.5
303.14 K, 30390 kPa, x2 = 0	–	1423.8
303.14 K, 30390 kPa, x2 = 0.1014	–	1415.2
303.14 K, 30390 kPa, x2 = 0.4999	–	1376.6
303.14 K, 30390 kPa, x2 = 0.5003	–	1376.5
303.14 K, 45590 kPa, x2 = 0	–	1491.4
303.14 K, 45590 kPa, x2 = 0.1014	–	1483.5
303.14 K, 45590 kPa, x2 = 0.3007	–	1466.1
303.14 K, 45590 kPa, x2 = 0.4999	–	1448
303.14 K, 45590 kPa, x2 = 0.5003	–	1448.1
303.14 K, 60790 kPa, x2 = 0	–	1553.1
303.14 K, 60790 kPa, x2 = 0.1014	–	1545.7
303.14 K, 60790 kPa, x2 = 0.4999	–	1512.9
303.14 K, 60790 kPa, x2 = 0.5003	–	1513
303.14 K, 60790 kPa, x2 = 0.7007	–	1491.3
303.14 K, 75990 kPa, x2 = 0	–	1610.9
303.14 K, 75990 kPa, x2 = 0.1014	–	1603.8
303.14 K, 75990 kPa, x2 = 0.4999	–	1572.4
303.14 K, 75990 kPa, x2 = 0.5003	–	1572.6
303.14 K, 75990 kPa, x2 = 0.7007	–	1552
303.14 K, 91180 kPa, x2 = 0	–	1664.1
303.14 K, 91180 kPa, x2 = 0.1014	–	1657.4
303.14 K, 91180 kPa, x2 = 0.3007	–	1642.8
303.14 K, 91180 kPa, x2 = 0.4999	–	1627.9
303.14 K, 91180 kPa, x2 = 0.5003	–	1628.3
303.14 K, 91180 kPa, x2 = 0.7007	–	1609.1
303.14 K, 101320 kPa, x2 = 0	–	1697.4
303.14 K, 101320 kPa, x2 = 0.3007	–	1677
303.14 K, 101320 kPa, x2 = 0.4999	–	1662.6
303.14 K, 101320 kPa, x2 = 0.7007	–	1644.6
303.15 K, 101 kPa, x2 = 0	741.636	1259.3
303.15 K, 101 kPa, x2 = 0.0991	737.456	–
303.15 K, 101 kPa, x2 = 0.2008	732.789	–
303.15 K, 101 kPa, x2 = 0.2998	727.833	–
303.15 K, 101 kPa, x2 = 0.3002	–	1226.7
303.15 K, 101 kPa, x2 = 0.7002	–	1168.2
303.15 K, 101 kPa, x2 = 0.7005	702.52	–
303.15 K, 101 kPa, x2 = 0.7995	694.549	–
303.15 K, 101 kPa, x2 = 0.8486	690.238	–
303.15 K, 101 kPa, x2 = 0.8988	685.588	–
303.15 K, 101 kPa, x2 = 0.9498	680.563	–
303.15 K, 15200 kPa, x2 = 0	–	1348.5
303.15 K, 15200 kPa, x2 = 0.3007	–	1317.9
303.15 K, 15200 kPa, x2 = 0.5003	–	1296.5
303.15 K, 15200 kPa, x2 = 0.7007	–	1268.1
303.15 K, 30390 kPa, x2 = 0.3007	–	1396
303.15 K, 30390 kPa, x2 = 0.7007	–	1351.3
303.15 K, 30390 kPa, x2 = 0.8496	–	1331.4
303.15 K, 45590 kPa, x2 = 0.7007	–	1425
303.15 K, 60790 kPa, x2 = 0.3007	–	1529.4
303.15 K, 75990 kPa, x2 = 0.3007	–	1588.1
303.15 K, 75990 kPa, x2 = 0.8496	–	1536.5
303.15 K, 91180 kPa, x2 = 0.8496	–	1594.2
303.15 K, 101320 kPa, x2 = 0.8496	–	1630.5
303.16 K, 101 kPa, x2 = 0.1007	–	1249.4
303.16 K, 101 kPa, x2 = 0.3996	722.389	1213.9
303.16 K, 101 kPa, x2 = 0.5	716.383	–
303.16 K, 101 kPa, x2 = 0.5002	–	1199.8
303.16 K, 101 kPa, x2 = 0.6	709.824	–
303.16 K, 101 kPa, x2 = 0.8	–	1150.3
303.16 K, 15200 kPa, x2 = 0.8496	–	1245.8
303.16 K, 45590 kPa, x2 = 0.8496	–	1406.8
303.16 K, 60790 kPa, x2 = 0.8496	–	1474.8
